Type in all cases: cell-based
Assay [1] concerns HCC827 human NSCLC adenocarcinoma cells (mutant ERBB1, deletion of E746-A759 in exon 19). The assay is described as follows: Cell proliferation assay, HCC827. The settings on record: for GI50: Homo sapiens, HCC827 cells, 72 hrs; for Ratio (Wild-type ERBB1/Mutant ERBB1) HEKn/HCC827: GI50 ratio HEKn/HCC827; for Ratio (Wild-type ERBB1/Mutant ERBB1) A431/HCC827: GI50 ratio A431/HCC827. On the procedure:
(§1) The biological activity of a test compound was determined using cell proliferation assays. The activity against wild-type ERBB 1 was determined using A431 human epidermoid carcinoma cells (ATCC) and human epidermal keratinocytes, neonatal, or HEKn cells (ATCC).
(§2) A431 cells were grown in DMEM (Invitrogen) supplemented with 10% FBS (Lonza), 1% penicillin-streptomycin, and 2 mM glutamine (Invitrogen). HEKn cells were grown in EPILIFE® (Invitrogen) supplemented with HKGS (Invitrogen). HCC827 and H1975 were cultured in RPMI1640 supplemented with 10% FBS (Lonza), 1% penicillin-streptomycin, and 2 mM glutamine (Invitrogen). Cells were maintained and propagated at 37° C. and 5% CO2 in a humidified cell culture incubator. Aliquots of cells from early passages were preserved for liquid nitrogen storage. Frozen vials of cells were thawed at 37° C. water bath. Cells were spun to remove freezing medium. The newly revived frozen cells were adapted in culture for 10 days before used for compound testing. Cells used in the assay were less than 20 subculture passages or 3 months in culture.
(§3) The test compounds were dissolved in dimethylsulfoxide (DMSO) and stored at -20° C. before testing. […] The cells were placed in a culture incubator overnight. Next day, test compounds in DMSO were added to the cells and placed back in the culture incubator for 72 hrs. In the meantime, the cell numbers at time zero of the compound treatment (T0) was measured by ENERCOUNT® (Codex BioSolutions). At the end of the compound treatment, the cell numbers were again measured by EnerCount as T72 values. The untreated controls (Ctrl) were cell numbers recorded from the 0.1% DMSO treatment. The percent growth inhibition by the test compound was calculated by the formula: (1- (T72-T0)/(Ctrl-T0)) x 100.
(§4) The results are summarized in Tables 1 and 2, wherein A represents a value no greater than 500 nM, B represents a value greater than 500 nM but no greater than 1 µM, C represents a value greater than 1 µM but no greater than 5 µM, and D represents a value greater than 5 µM; and wherein A′ represents a ratio of greater than 10, B′ represents a ratio of no greater than 10 but no less than 5, C′ represents a ratio of no greater than 5 but no less than 2, and D′ represents a ratio of no greater than 2.

Assay [2] deals with H1975 human NSCLC adenocarcinoma cells (drug-resistant mutant ERBB1, T790M in-cis with L858R). The assay is described as follows: Cell proliferation assay, H1975. The note with it: for GI50: Homo sapiens, NCI-H1975, H1975 cells, 72 hrs; for Ratio (Wild-type ERBB1/Mutant ERBB1) HEKn/H1975: GI50 ratio HEKn/H1975; for Ratio (Wild-type ERBB1/Mutant ERBB1) A431/H1975: GI50 ratio A431/H1975. On the procedure:
as §1, §2, §3, §4

Assay [3] deals with human epidermal keratinocytes, neonatal, or HEKn cells (wild-type ERBB1). In words: Cell proliferation assay, HEKn. The note with it: Keratinocyte, 72 hrs. On the procedure:
as §1, §2, §3, §4

The subject of assay [4] is A431 human epidermoid carcinoma cells (wild-type ERBB1). The assay is described as follows: Cell proliferation assay, A431. The note with it: A-431, 72 hrs. How it is done:
as §1, §2, §3, §4

The mark [5] stands for this setting: numeric values, reference compounds.

In general, GI50 refers to the concentration giving 50% growth inhibition. With `C=CC(=O)N1CCCC[C@@H](n2c(NC(=O)c3ccnc(OC)c3)nc3ccc4c(c32)OCCO4)C1` [Compound C2-A, (R)-N-(1-(1-acryloylazepan-3-yl)-7,8-dihydro-1H-[1,4]dioxino[2′,3′:3,4]benzo[1,2-d]imidazol-2-yl)-2-methoxyisonicotinamide], the GI50 was below 500 nM in assay [1], below 500 nM in assay [2], 1000 to 5000 nM in assay [3] and 1000 to 5000 nM in assay [4].
Consider `C=CC(=O)N1CCCC[C@@H](n2c(NC(=O)c3ccnc(C(F)(F)F)c3)nc3ccc4c(c32)OCCO4)C1` [Compound B1-A, (R)-N-(1-(1-acryloylazepan-3-yl)-7,8-dihydro-1H-[1,4]dioxino[2′,3′:3,4]benzo[1,2-d]imidazol-2-yl)-2-(trifluoromethyl)isonicotinamide], for which the GI50 in assay [1] is below 500 nM; in assay [2], below 500 nM; in assay [3], above 5000 nM; in assay [4] it was 1000 to 5000 nM.
As for `C=CC(=O)Nc1cccc(Nc2nc(Nc3ccc(N4CCN(C(C)=O)CC4)cc3OC)ncc2C(F)(F)F)c1` [CO-1686], in assay [1], the “Ratio (Wild-type ERBB1/Mutant ERBB1) HEKn/HCC827” value was “A′ (A′ represents a ratio of greater than 10)”. For the same compound, the GI50 is 32 nM in assay [1] (setting [5]) and 2500 nM in assay [3] (setting [5]). For the same compound, the “Ratio (Wild-type ERBB1/Mutant ERBB1) HEKn/H1975” value in assay [2] was “A′ (A′ represents a ratio of greater than 10)”.
On to `C=CC(=O)N1CCC(Oc2cccc3nc(NC(=O)c4ccnc(C)c4)n([C@@H]4CCCCN(C(=O)C=C)C4)c23)CC1` [Compound A3, (R)-N-(1-(1-acryloylazepan-3-yl)-7-((1-acryloylpiperidin-4-yl)oxy)-1H-benzo[d]imidazol-2-yl)-2-methylisonicotinamide], for which, in assay [1], the “Ratio (Wild-type ERBB1/Mutant ERBB1) A431/HCC827” value is on record as “A′ (A′ represents a ratio of greater than 10)”, the “Ratio (Wild-type ERBB1/Mutant ERBB1) HEKn/HCC827” value is “A′ (A′ represents a ratio of greater than 10)” and the GI50 was below 500 nM. Further, in assay [2], the “Ratio (Wild-type ERBB1/Mutant ERBB1) A431/H1975” value is given as “B′ (B′ represents a ratio of no greater than 10 but no less than 5)”, the “Ratio (Wild-type ERBB1/Mutant ERBB1) HEKn/H1975” value was “A′ (A′ represents a ratio of greater than 10)” and the GI50 was below 500 nM. Further, the GI50 in assay [3] fell in the range of 1000 to 5000 nM. In assay [4], this compound registered a GI50 above 5000 nM.
In the case of `C=CC(=O)N1CCCC[C@@H](n2c(NC(=O)c3ccnc(C)c3)nc3cc(OC(F)(F)F)cc(Cl)c32)C1` [Compound A4, (R)-N-(1-(1-Acryloylazepan-3-yl)-7-chloro-5-(trifluoromethoxy)-1H-benzo[d]imidazol-2-yl)-2-methylisonicotinamide], in assay [1], the “Ratio (Wild-type ERBB1/Mutant ERBB1) A431/HCC827” value is reported as “A′ (A′ represents a ratio of greater than 10)”, the “Ratio (Wild-type ERBB1/Mutant ERBB1) HEKn/HCC827” value is recorded as “A′ (A′ represents a ratio of greater than 10)” and the GI50 is below 500 nM. Moreover, in assay [2], the “Ratio (Wild-type ERBB1/Mutant ERBB1) A431/H1975” value is “C′ (C′ represents a ratio of no greater than 5 but no less than 2)”, the “Ratio (Wild-type ERBB1/Mutant ERBB1) HEKn/H1975” value is listed as “C′ (C′ represents a ratio of no greater than 5 but no less than 2)” and the GI50 was below 500 nM. For the same compound, the GI50 in assay [3] lay within 1000 to 5000 nM. The compound further registered a GI50 in assay [4] of 1000 to 5000 nM.
As to `C=CC(=O)N1CCCC[C@@H](n2c(NC(=O)c3ccnc(C)c3)nc3ccc4c(c32)OCCO4)C1` [Compound C1-A, (R)-N-(1-(1-acryloylazepan-3-yl)-7,8-dihydro-1H-[1,4]dioxino[2′,3′:3,4]benzo[1,2-d]imidazol-2-yl)-2-methylisonicotinamide], the GI50 is below 500 nM in assay [1], below 500 nM in assay [2], 1000 to 5000 nM in assay [3] and 1000 to 5000 nM in assay [4].
For `Cc1cc(C(=O)Nc2nc3cc(OC(F)(F)F)cc(Cl)c3n2[C@@H]2CCCCN(C(=O)/C=C/CN(C)C)C2)ccn1` [Compound A5, (R,E)-N-(7-Chloro-1-(1-(4-(dimethylamino)but-2-enoyl)azepan-3-yl)-5-(trifluoromethoxy)-1H-benzo[d]imidazol-2-yl)-2-methylisonicotinamide], in assay [1], the “Ratio (Wild-type ERBB1/Mutant ERBB1) A431/HCC827” value was “A′ (A′ represents a ratio of greater than 10)”, the “Ratio (Wild-type ERBB1/Mutant ERBB1) HEKn/HCC827” value was “A′ (A′ represents a ratio of greater than 10)” and the GI50 was below 500 nM. Also, in assay [2], the “Ratio (Wild-type ERBB1/Mutant ERBB1) A431/H1975” value was “C′ (C′ represents a ratio of no greater than 5 but no less than 2)”, the “Ratio (Wild-type ERBB1/Mutant ERBB1) HEKn/H1975” value was “A′ (A′ represents a ratio of greater than 10)” and the concentration for 50% growth inhibition (GI50) was below 500 nM. Further, the GI50 in assay [3] lay within 1000 to 5000 nM. For the same compound, in assay [4], the GI50 was 1000 to 5000 nM.
On to `C=CC(=O)N1CCCC[C@@H](n2c(NC(=O)c3ccnc(C)c3)nc3cccc(OC4CCN(CC)CC4)c32)C1` [Compound A1, (R)-N-(1-(1-Acryloylazepan-3-yl)-7-((1-ethylpiperidin-4-yl)oxy)-1H-benzo[d]imidazol-2-yl)-2-methylisonicotinamide], for which, in assay [1], the “Ratio (Wild-type ERBB1/Mutant ERBB1) A431/HCC827” value is “A′ (A′ represents a ratio of greater than 10)”, the “Ratio (Wild-type ERBB1/Mutant ERBB1) HEKn/HCC827” value was “A′ (A′ represents a ratio of greater than 10)” and the GI50 is below 500 nM. Further, in assay [2], the “Ratio (Wild-type ERBB1/Mutant ERBB1) A431/H1975” value is “A′ (A′ represents a ratio of greater than 10)”, the “Ratio (Wild-type ERBB1/Mutant ERBB1) HEKn/H1975” value is recorded as “A′ (A′ represents a ratio of greater than 10)” and the GI50 was below 500 nM. Besides, the GI50 in assay [3] was in the range of 1000 to 5000 nM. The GI50 in assay [4] was below 500 nM.
